Structures can show the parent of a compound that is named as a salt. Where two headings read alike, the source gives them in different places.
Biological target: Active Human ERK2 (hERK2) (Homo sapiens (Human), UniProt P28482)
Test: Active Human ERK2 (hERK2) Activity Assay (IMAP-FP)
Assay type: biochemical
Procedure, shortened: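 Phosphorylation by activated human ERK2 (0.5 nM) at 30 μM ATP, peptide substrate 900 nM unlabeled with 80 nM labeled, proceeds 60 min. IMAP beads stop the reaction; after 60 min equilibration, product is measured by fluorescence polarization.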

[1] = phosphorylated active hERK2, 30 μM ATP, average, read-out: ERK 2 Human average IC50
[2] = read-out: AERK2 IC50 (Active human ERK2 Activity Assay)

Sequence of Active Human ERK2 (hERK2) (P28482 whole entry): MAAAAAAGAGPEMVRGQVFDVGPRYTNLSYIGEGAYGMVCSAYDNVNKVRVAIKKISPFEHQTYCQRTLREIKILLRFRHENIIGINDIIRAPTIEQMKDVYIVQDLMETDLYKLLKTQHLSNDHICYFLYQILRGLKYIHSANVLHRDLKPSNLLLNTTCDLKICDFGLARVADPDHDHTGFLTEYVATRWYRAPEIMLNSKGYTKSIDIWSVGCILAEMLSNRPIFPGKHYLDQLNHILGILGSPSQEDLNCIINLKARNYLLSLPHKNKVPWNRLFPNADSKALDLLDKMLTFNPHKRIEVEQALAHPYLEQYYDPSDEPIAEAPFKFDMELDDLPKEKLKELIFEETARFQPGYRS

| Compound | IC50 [1] | IC50 [2] |
| --- | --- | --- |
| Cc1cc(-c2n[nH]c3cc(NC(=O)N(C)Cc4cccnc4)ncc23)ccn1 [Example 46, 1-methyl-3-[3-(2-methylpyridin-4-yl)-1H-pyrazolo[4,3-c]pyridin-6-yl]-1-(pyridin-3-ylmethyl)urea] | 763 nM |  |
| Cc1cc(-c2n[nH]c3c(F)c(NC(=O)N[C@H](C)c4ccccc4)ncc23)ccn1 [Example 95, 1-[7-fluoro-3-(2-methylpyridin-4-yl)-1H-pyrazolo[4,3-c]pyridin-6-yl]-3-[(1R)-1-phenylethyl]urea] | 0.235 nM | 0.2 to 1.7 nM |
| O=C(NCc1ccc(F)cc1)Nc1cc2[nH]nc(C3CCC3)c2cn1 [Example 146] | 12.9 nM |  |
| CCCNC(=O)Nc1cc2[nH]nc(-c3ccnc(C)c3)c2cn1 [Example 241] | 2.73 nM |  |
| Cc1cc(-c2n[nH]c3cc(NC(=O)NC4CCCC(Oc5ccc(Cl)c(F)c5)C4)ncc23)ccn1 (centres unmarked) [Example 646] | 373 nM |  |
| Cc1cc(-c2n[nH]c3cc(NC(=O)NCC4(N(C)C)CCC4)ncc23)ccn1 [Example 193] | 125 nM |  |
| CCO[C@@H]1CN(C)C[C@H]1NC(=O)Nc1cc2[nH]nc(-c3ccc(F)cc3)c2cn1 [Example 320] | 25.4 nM |  |
| COC[C@@H](NC(=O)Nc1cc2[nH]nc(C3CC3)c2cn1)c1cc(F)ccn1 [Example 168] | 117 nM |  |
| Cc1cc(-c2n[nH]c3cc(NC(=O)NCC4(c5ccc(F)cc5)CC4)ncc23)ccn1 [Example 269] | 2.81 nM |  |
| Cc1cc(-c2n[nH]c3cc(NC(=O)NCc4ccccn4)ncc23)ccn1 [Example 479] | 3.02 nM |  |
| Cc1cc(-c2n[nH]c3cc(NC(=O)NCc4ncccc4C)ncc23)ccn1 [Example 480] | 1.22 nM |  |
| Cc1cc(-c2n[nH]c3cc(NC(=O)NC4(c5ccc(Cl)cc5)CC4)ncc23)ccn1 [Example 85, 1-[1-(4-chlorophenyl)cyclopropyl]-3-[3-(2-methylpyridin-4-yl)-1H-pyrazolo[4,3-c]pyridin-6-yl]urea] | 29.8 nM |  |
| Cc1cc(-c2n[nH]c3cc(NC(=O)NC4CCOC4)ncc23)ccn1 (centres unmarked) [Example 577] | 4 nM |  |
| C[C@@H](NC(=O)Nc1cc2[nH]nc(-c3ccc(F)cc3)c2cn1)C1CCCCC1 [Example 594] | 3.78 nM |  |
| Cc1cc(-c2n[nH]c3cc(NC(=O)N[C@H]4CN(C)C[C@@H]4C4CC4)ncc23)ccn1 [Example 209] | 8.27 nM |  |
| CO[C@H](C)CNC(=O)Nc1cc2[nH]nc(-c3ccnc(C)c3)c2cn1 [Example 598] | 1.55 nM |  |
| Cc1cc(-c2n[nH]c3cc(NC(=O)NCc4scnc4C)ncc23)ccn1 [Example 418] | 2.75 nM |  |
| CC[C@H](CO)NC(=O)Nc1cc2[nH]nc(-c3ccnc(C)c3)c2cn1 [Example 204] | 24.1 nM |  |
| Cc1cc(-c2n[nH]c3cc(NC(=O)N[C@H](C)C4CCCCC4)ncc23)ccn1 [Example 575] | 1.2 nM |  |
| Cc1cc(-c2n[nH]c3cc(NC(=O)NCCC4COc5ccccc5O4)ncc23)ccn1 (centres unmarked) [Example 373] | 1.07 nM |  |
| CCC(NC(=O)Nc1cc2[nH]nc(-c3ccnc(C)c3)c2cn1)c1ccc(Cl)cc1 (centres unmarked) [Example 344] | 3.15 nM |  |
| CN1CC[C@@H](CNC(=O)Nc2cc3[nH]nc(-c4ccc(F)cc4)c3cn2)C1 [Example 321] | 0.986 nM |  |

| Compound | IC50 [1] | IC50 [2] |
| --- | --- | --- |
| COc1cccc(F)c1CNC(=O)Nc1cc2[nH]nc(-c3ccnc(C)c3)c2cn1 [Example 485] | 0.307 nM |  |
| Cc1cc(-c2n[nH]c3cc(NC(=S)NCc4ccccc4)ncc23)ccn1 [Example 94, 6-[(benzylcarbamothioyl)amino]-3-(2-methylpyridin-4-yl)-1H-pyrazolo[4,3-c]pyridin-5-ium trifluoroacetate] | 11.9 nM |  |
| Cc1cc(-c2n[nH]c3cc(NC(=O)N[C@H]4CN(C)C[C@@H]4c4ccccc4F)ncc23)ccn1 [Example 183] | 0.662 nM |  |
| COC[C@H](NC(=O)Nc1cc2[nH]nc(-c3ccc(F)cc3)c2cn1)c1ccccn1 [Example 486] | 23.5 nM |  |
| Cc1cc(-c2n[nH]c3cc(NC(=O)NCc4cc5ccccc5cn4)ncc23)ccn1 [Example 395] | 7.66 nM |  |
| CC(C)Oc1ccc(-c2n[nH]c3cc(NC(=O)N[C@H](C)c4ccccc4)ncc23)cn1 [Example 28, 1-{3-[6-(1-methylethoxy)pyridin-3-yl]-1H-pyrazolo[4,3-c]pyridin-6-yl}-3-[(1R)-1-phenylethyl]urea] | 3.63 nM |  |
| Cc1cc(-c2n[nH]c3cc(NC(=O)NC4(c5ccccn5)CCC4)ncc23)ccn1 [Example 355] | 1.54 nM |  |
| C[C@@H](NC(=O)Nc1cc2[nH]nc(C3CCC3)c2cn1)c1ccccc1 [Example 145] | 2.44 nM |  |
| Cc1cc(-c2n[nH]c3cc(NC(=O)NCc4cccc5ccccc45)ncc23)ccn1 [Example 32, 1-[3-(2-methylpyridin-4-yl)-1H-pyrazolo[4,3-c]pyridin-6-yl]-3-(naphthalen-1-ylmethyl)urea] | 3.92 nM |  |
| C[C@@H](NC(=O)Nc1cc2[nH]nc(-c3cnn(C)c3)c2cn1)c1ccc(F)cc1 [Example 259] | 0.469 nM |  |
| Cc1cncc(-c2n[nH]c3cc(NC(=O)N[C@H](C)c4ccc(F)cc4)ncc23)c1 [Example 308] | 1.8 nM |  |
| Cc1nc2ccc(-c3n[nH]c4cc(NC(=O)N[C@H](C)c5ccccc5)ncc34)cc2s1 [Example 87, 1-[3-(2-methyl-1,3-benzothiazol-6-yl)-1H-pyrazolo[4,3-c]pyridin-6-yl]-3-[(1R)-1-phenylethyl]urea] | 0.748 nM | 0.2 to 1.7 nM |
| Cc1cc(-c2n[nH]c3cc(NC(=O)N[C@H](C)c4ccccc4)ncc23)cnn1 [Example 91, 1-[3-(6-methylpyridazin-4-yl)-1H-pyrazolo[4,3-c]pyridin-6-yl]-3-[(1R)-1-phenylethyl]urea] | 0.878 nM | 0.2 to 1.7 nM |
| Cc1cc(-c2n[nH]c3cc(NC(=O)N[C@@H]4CN(C)C[C@H]4C)ncc23)ccn1 [Example 206] | 3.59 nM |  |
| Cn1cc2cc(-c3n[nH]c4cc(NC(=O)NCc5ccc(F)c(Cl)c5)ncc34)ccc2n1 [Example 64, 1-(3-chloro-4-fluorobenzyl)-3-[3-(2-methyl-2H-indazol-5-yl)-1H-pyrazolo[4,3-c]pyridin-6-yl]urea] | 0.586 nM | 0.2 to 1.7 nM |
| Cc1cc(-c2n[nH]c3cc(NC(=O)NC4CCCC(Oc5cccc(F)c5)C4)ncc23)ccn1 (centres unmarked) [Example 656] | 5.06 nM |  |
| Cc1cc(-c2n[nH]c3cc(NC(=O)NCc4ncnn4C)ncc23)ccn1 [Example 424] | 2.55 nM |  |
| Cc1cc(-c2n[nH]c3cc(NC(=O)NC4CCCOc5ccccc54)ncc23)ccn1 (centres unmarked) [Example 274] | 0.494 nM |  |
| COc1ncccc1CNC(=O)Nc1cc2[nH]nc(-c3ccnc(C)c3)c2cn1 [Example 495] | 0.608 nM |  |
| Cc1cc(-c2n[nH]c3cc(NC(=O)N[C@@H](c4ccc(F)cc4)C(F)(F)F)ncc23)ccn1 [Example 280] | 9.83 nM |  |
| Cc1cc(-c2n[nH]c3cc(NC(=O)NCc4ccccc4F)ncc23)ccn1 [Example 442] | 0.815 nM |  |
| C[C@@H](NC(=O)Nc1cc2[nH]nc(-c3cnn(C)c3)c2cn1)c1ccccc1 [Example 29, 1-[3-(1-methyl-1H-pyrazol-4-yl)-1H-pyrazolo[4,3-c]pyridin-6-yl]-3-[(1R)-1-phenylethyl]urea] | 0.334 nM | 0.2 to 1.7 nM |

| Compound | IC50 [1] | IC50 [2] |
| --- | --- | --- |
| Cc1cc(-c2n[nH]c3cc(NC(=O)NCc4cccc(S(C)(=O)=O)c4)ncc23)ccn1 [Example 619] | 0.159 nM |  |
| COC[C@@H](NC(=O)Nc1cc2[nH]nc(-c3ccc4nnn(C)c4c3)c2cn1)c1ccccc1 [Example 697] | 0.221 nM |  |
| Cc1cc(-c2n[nH]c3cc(NC(=O)NC(C)(C)CO)ncc23)ccn1 [Example 203] | 104 nM |  |
| Cc1cc(-c2n[nH]c3cc(NC(=O)NC(C)c4ccno4)ncc23)ccn1 (centres unmarked) [Example 497] | 1.53 nM |  |
| CNC(=O)[C@H]1CC1c1n[nH]c2cc(NC(=O)N[C@H](COC)c3ccccc3)ncc12 (some centres unmarked) [Example 171] | 0.97 nM |  |
| Cc1cc(-c2n[nH]c3cc(NC(=O)N[C@@H]4CCCOc5ccccc54)ncc23)ccn1 [Example 285] | 0.382 nM |  |
| Cc1cc(-c2n[nH]c3cc(NC(=O)NCC(O)C4CCCCC4)ncc23)ccn1 (centres unmarked) [Example 389] | 4.11 nM |  |
| Cc1cc(-c2n[nH]c3cc(NC(=O)N[C@@H]4CCCc5cccnc54)ncc23)ccn1 [Example 262, 1-[3-(2-methylpyridin-4-yl)-1H-pyrazolo[4,3-c]pyridin-6-yl]-3-[(8R)-5,6,7,8-tetrahydroquinolin-8-yl]urea] | 1.25 nM |  |
| COCCN(C)c1ncc(-c2n[nH]c3cc(NC(=O)N[C@H](C)c4ccccc4)ncc23)cn1 [Example 293] | 24.3 nM |  |
| Cc1cc(-c2n[nH]c3cc(NC(=O)NCC(c4ccccc4)N4CCCCC4)ncc23)ccn1 (centres unmarked) [Example 386] | 4.94 nM |  |
| Cc1cc(-c2n[nH]c3cc(NC(=O)NCc4nc(N)cs4)ncc23)ccn1 [Example 473] | 2.69 nM |  |
| C[C@@H](NC(=O)Nc1ncc2c(-c3ccnc(F)c3)n[nH]c2c1F)c1ccccc1 [Example 539] | 0.728 nM |  |
| Cc1cc(-c2n[nH]c3cc(NC(=O)NC(C)c4ccc(F)c(F)c4)ncc23)ccn1 (centres unmarked) [Example 338] | 0.998 nM |  |
| Cc1cc(-c2n[nH]c3cc(NC(=O)NCc4cccc(-c5ncc[nH]5)c4)ncc23)ccn1 [Example 372] | 1.33 nM |  |
| COC(C)CNC(=O)Nc1cc2[nH]nc(-c3ccnc(C)c3)c2cn1 (centres unmarked) [Example 585] | 1.26 nM |  |
| Cc1cc(-c2n[nH]c3cc(NC(=O)NC(c4ccccc4)C4CCCO4)ncc23)ccn1 (centres unmarked) [Example 237] | 0.566 nM |  |
| COCCNC(=O)Nc1cc2[nH]nc(-c3ccc4nn(C)cc4c3)c2cn1 [Example 626] | 0.8 nM |  |
| Cc1cc(-c2n[nH]c3cc(NC(=O)N[C@@H]4CNC[C@H]4F)ncc23)ccn1 [Example 325] | 3.96 nM |  |
| O=C(NCc1ncco1)Nc1cc2[nH]nc(-c3ccc(F)cc3)c2cn1 [Example 221] | 4.49 nM |  |
| C[C@@H](NC(=O)Nc1cc2[nH]nc(C3=CNCN=C3)c2cn1)c1ccc(F)cc1 [Example 663] | 9.13 nM |  |
| Cc1nnc(-c2n[nH]c3cc(NC(=O)N[C@H](C)c4ccccc4)ncc23)o1 [Example 681] | 7.7 nM |  |
| COCCNC(=O)Nc1cc2[nH]nc(-c3ccc4cn(C)nc4c3)c2cn1 [Example 625] | 13.6 nM |  |

Source: patent US9023865B2, “Compounds that are ERK inhibitors” (Merck Sharp & Dohme Corp., priority 2011, dated 2015)
